From ChEMBL document CHEMBL1132325, “4-Heterocyclohexanone-based inhibitors of the serine protease plasmin” (J Med Chem, 1999)
pKi: −log10 of the molar value.

Key:
Prothrombin = Prothrombin (Homo sapiens, UniProt P00734); test: Compound was evaluated for its binding affinity against thrombin
Plasminogen [1] = target: T1, Plasminogen (Homo sapiens, UniProt P00747); test: (§1) Compound was evaluated for its binding affinity against plasmin
Serine protease 1 = Serine protease 1 (Homo sapiens, UniProt P07477); test: Compound was evaluated for its binding affinity against trypsin
Kallikrein-1 = Kallikrein-1 (Homo sapiens, UniProt P06870); test: Compound was evaluated for its binding affinity against kallikrein
Plasminogen [2] = target: T1, Plasminogen; test: as §1; remark: listed apart in the source

T1 sequence (P00747 97-580 limits assumed): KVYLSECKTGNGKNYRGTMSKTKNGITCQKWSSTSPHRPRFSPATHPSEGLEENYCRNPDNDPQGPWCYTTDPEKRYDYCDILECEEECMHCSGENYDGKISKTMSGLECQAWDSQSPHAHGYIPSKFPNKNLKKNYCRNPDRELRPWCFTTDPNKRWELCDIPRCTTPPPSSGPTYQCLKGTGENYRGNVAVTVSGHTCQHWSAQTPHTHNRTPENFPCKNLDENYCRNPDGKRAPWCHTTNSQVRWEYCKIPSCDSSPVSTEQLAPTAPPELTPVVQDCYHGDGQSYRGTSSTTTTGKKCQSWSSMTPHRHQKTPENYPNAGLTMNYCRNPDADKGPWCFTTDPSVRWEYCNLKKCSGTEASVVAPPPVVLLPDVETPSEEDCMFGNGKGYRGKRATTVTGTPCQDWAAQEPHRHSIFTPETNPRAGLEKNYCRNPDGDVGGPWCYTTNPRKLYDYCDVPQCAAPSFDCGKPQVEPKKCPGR
T1 sequence (P00747 581-810 limits assumed): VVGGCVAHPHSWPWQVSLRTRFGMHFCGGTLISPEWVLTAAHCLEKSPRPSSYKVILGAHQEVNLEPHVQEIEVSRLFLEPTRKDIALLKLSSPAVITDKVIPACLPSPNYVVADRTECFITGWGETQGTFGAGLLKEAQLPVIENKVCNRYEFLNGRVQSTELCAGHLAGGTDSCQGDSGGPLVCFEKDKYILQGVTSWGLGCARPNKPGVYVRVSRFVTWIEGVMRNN
Sequence of Serine protease 1 (P07477 whole entry): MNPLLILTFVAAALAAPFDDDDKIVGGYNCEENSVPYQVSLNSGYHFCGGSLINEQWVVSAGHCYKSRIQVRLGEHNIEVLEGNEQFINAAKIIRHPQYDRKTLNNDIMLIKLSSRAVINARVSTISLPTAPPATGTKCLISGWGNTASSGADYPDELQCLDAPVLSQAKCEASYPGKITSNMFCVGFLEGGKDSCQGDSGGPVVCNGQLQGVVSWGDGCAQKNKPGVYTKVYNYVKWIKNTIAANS
Sequence of Kallikrein-1 (P06870 whole entry): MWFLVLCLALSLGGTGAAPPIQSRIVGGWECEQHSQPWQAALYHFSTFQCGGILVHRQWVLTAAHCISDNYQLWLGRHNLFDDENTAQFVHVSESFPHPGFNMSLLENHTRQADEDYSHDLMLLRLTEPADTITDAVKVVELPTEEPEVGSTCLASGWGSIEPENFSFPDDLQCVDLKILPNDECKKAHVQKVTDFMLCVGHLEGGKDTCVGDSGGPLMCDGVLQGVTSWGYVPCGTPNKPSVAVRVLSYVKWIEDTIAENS

Question: How did the pKi (Prothrombin) turn out when NCCCCCCN(CCCCCCN)C1CSCCC1=O (configuration not stated) was run?
Answer: < 2.00

Question: And the pKi (Plasminogen [1])?
Answer: 3.40

Question: What about the pKi (Serine protease 1) of the same compound?
Answer: 2.85

Question: What about the pKi (Kallikrein-1) of the same compound?
Answer: < 2.00

Question: How did the pKi (Plasminogen [2]) turn out when CC[C@@H](C)[C@@H](N)C(=O)N[C@@H](Cc1ccccc1)C(=O)NC1CSCCC1=O (stereo in doubt; form 2) was run?
Answer: 2.05

Question: Which results are given for CC[C@H](C)[C@@H](N)C(=O)N[C@@H](Cc1ccccc1)C(=O)N(CCCCCCN)C1CSCCC1=O (some centres not stated)?
Answer: pKi (Prothrombin): 3.14; pKi (Kallikrein-1): 3.20

Question: How did the pKi (Plasminogen [2]) turn out when CCC(C)[C@@H](N)C(=O)N[C@@H](Cc1ccccc1)C(=O)N(CCCCCCN)C1CCCCC1 (some centres not stated) was run?
Answer: 3.28

Question: With CC[C@@H](C)[C@@H](N)C(=O)N[C@@H](Cc1ccccc1)C(=O)N(CCCCCCN)C1CSCCC1=O (some centres not stated) as the compound, how does the pKi (Plasminogen [2]) read?
Answer: 3.89

Question: What about the pKi (Plasminogen [1]) of the same compound?
Answer: 4.30

Question: And the pKi (Serine protease 1)?
Answer: 2.77

Question: How did the pKi (Plasminogen [2]) turn out when CC[C@@H](C)[C@@H](N)C(=O)N[C@@H](Cc1ccccc1)C(=O)NC1CSCCC1=O (stereo in doubt; form 1) was run?
Answer: 1.80
